Source: ChEMBL document CHEMBL1152465, “Comparative evaluation of the inhibitory activities of a series of pyrimidinedione congeners that inhibit human immunodeficiency virus types 1 and 2” (Antimicrob Agents Chemother, 2008)
Active and inactive are the calls of the source.

Legend:
[1] = Cytotoxicity against human HeLa cells expressing CD4-LTR by XTT assay; format: cell-based; details: read-out: TC50 (the source's name)
[2] = biological target: Human immunodeficiency virus type 1 reverse transcriptase (Human immunodeficiency virus 1, UniProt Q72547); assay: Inhibition of wild type HIV1 reverse transcriptase assessed as 32P-labeled GMP incorporation into nascent DNA strand
[3] = tested on: Human immunodeficiency virus 1; assay: Antiviral activity against HIV1 infected in human CEM-SS cells assessed as inhibition of viral replication and virus-induced cytopathic effect by dose-response curve analysis; format: functional; details: Human immunodeficiency virus 1, CEM-SS
[4] = Cytotoxicity against human CEM-SS cells by XTT assay; format: cell-based; details: read-out: TC50 (the source's name)
[5] = tested on: Human immunodeficiency virus 1; assay: Antiviral activity against HIV1 infected in human HeLa cells expressing CD4-LTR assessed as inhibition of viral entry-related beta galactosidase expression treated for 2 hrs followed by drug wash out measured after 48 hrs by MAGI assay; format: functional, organism-based; details: Human immunodeficiency virus 1, HeLa
[6] = tested on: Human immunodeficiency virus 2; assay: Antiviral activity against HIV2 assessed as inhibition of viral replication treated at time points after viral entry into host cells; format: functional, organism-based
[7] = tested on: Human immunodeficiency virus 1; assay: Antiviral activity against HIV1 RF infected in human CEM-SS cells assessed as inhibition of virus-induced cytopathic effect by XTT assay; format: functional, organism-based; details: Human immunodeficiency virus 1, RF
[8] = tested on: Human immunodeficiency virus 2; assay: Antiviral activity against HIV2 assessed as inhibition of viral single round replication at early time point; format: functional, organism-based
[9] = Therapeutic index, ratio of TC50 for human CEM-SS cells to EC50 for HIV1 RF infected in human CEM-SS cells; format: cell-based; details: read-out: TI
[10] = Therapeutic index, ratio of TC50 human HeLa cells expressing CD4-LTR to EC50 for HIV1 entry inhibition in human HeLa cells expressing CD4-LTR; format: cell-based; details: read-out: TI
[11] = Therapeutic index, ratio of TC50 for human CEM-SS cells to EC50 for HIV2 ROD infected in human CEM-SS cells; format: cell-based; details: for TI: cem-ss; for selectivity ratio: CEM-SS cells, read-out: TI
[12] = tested on: Human immunodeficiency virus 2; assay: Antiviral activity against HIV2 ROD infected in human CEM-SS cells assessed as inhibition of virus-induced cytopathic effect by XTT assay; format: functional, organism-based, ISOLATE ROD
[13] = tested on: Human immunodeficiency virus 2; assay: Inhibition of HIV2 reverse transcriptase assessed as 32P-labeled GMP incorporation into nascent DNA strand at highest concentration
[14] = tested on: Human immunodeficiency virus 2; assay: Inhibition of HIV2 reverse transcriptase
[15] = biological target: Human immunodeficiency virus type 1 reverse transcriptase (Human immunodeficiency virus 1, UniProt Q72547, K103N); assay: Inhibition of HIV1 reverse transcriptase K103N mutant assessed as 32P-labeled GMP incorporation into nascent DNA strand
[16] = Human immunodeficiency virus 2, ISOLATE ROD, CEM-SS, read-out: EC50

Structure (SMILES)	CC50 [1] [µM]	IC50 [2] [µM]	EC99 [3] [µM]	CC50 [4] [µM]	EC50 [5] [µM]	Activity [6]	EC50 [7] [µM]	Activity [8]	selectivity ratio [9]	selectivity ratio [10]	TI [11]	EC50 ([12]; cem-ss)	Activity [13]	Activity [14]	IC50 [15] [µM]	selectivity ratio [11]	EC50 [12, 16] [µM]
Cc1cc(C)cc(Oc2c(C(C)C)c(=O)[nH]c(=O)n2CCC2=CCCC2)c1	17.4	1.54	1	17.1	2.7	inactive	0.19	Active	90	6	Not Active	Not Active	inactive	inactive	176	–	–
Cc1cc(C)cc(Oc2c(C(C)C)c(=O)[nH]c(=O)n2CC2CC=CC2)c1	200	0.256	1	200	0.09	inactive	0.015	Active	12900	2340	–	–	inactive	inactive	1.9	11	18.2
Cc1cc(C)cc(C(=O)c2c(C(C)C)c(=O)[nH]c(=O)n2CC2CCCC2)c1	16.6	0.147	1	15.2	0.08	inactive	0.0035	Active	5080	203	–	–	inactive	inactive	15.3	40	0.4
CCc1c(C(=O)c2ccccc2)n(CC2CC=CC2)c(=O)[nH]c1=O	88.5	0.256	1	88.5	2.93	inactive	0.0617	Active	1440	30	–	–	inactive	inactive	134	2.9	30.9
CCc1c(Oc2cc(C)cc(C)c2)n(CC2=CCCC2)c(=O)[nH]c1=O	62.9	0.122	1	62.9	0.009	inactive	0.016	Active	4080	7280	–	–	inactive	inactive	0.22	47.6	1.3
Cc1cc(C)cc(Oc2c(C(C)C)c(=O)[nH]c(=O)n2CCC2C=CCC2)c1 (stereo not given)	14.2	0.027	1	7.6	0.009	inactive	0.0059	Active	3560	1650	–	–	inactive	inactive	1.5	21.5	0.4
Cc1cc(C)cc(Sc2c(C(C)C)c(=O)[nH]c(=O)n2CCC2=CCCC2)c1	21.6	2.36	1	19.3	0.011	inactive	0.94	Active	26	1990	Not Active	Not Active	inactive	inactive	> 260	–	–
CCc1c(C(=O)c2cc(C)cc(C)c2)n(CCC2CCCC2)c(=O)[nH]c1=O	22.2	0.119	1	25.8	0.02	inactive	0.01	Active	2580	1230	Not Active	Not Active	inactive	inactive	> 271	–	–
Cc1cc(C)cc(Oc2c(C(C)C)c(=O)[nH]c(=O)n2CCC2CCCC2)c1	12.7	0.234	1	7.8	0.02	inactive	0.05	Active	145	675	Not Active	Not Active	inactive	inactive	16.2	–	–
CCc1c(Sc2ccccc2)n(CC2CC=CC2)c(=O)[nH]c1=O	30.3	0.366	1	20.7	0.02	inactive	0.15	Active	262	1250	Not Active	Not Active	inactive	inactive	17.1	–	–
CCc1c(C(=O)c2cc(C)cc(C)c2)n(CCC2=CCCC2)c(=O)[nH]c1=O	1100	2	1	1100	2.6	inactive	0.055	Active	20100	421	–	–	inactive	inactive	> 273	> 58.6	18.6
Cc1cc(C)cc(Sc2c(C(C)C)c(=O)[nH]c(=O)n2CCC2C=CCC2)c1 (stereo not given)	31.9	0.246	1	25.8	0.009	inactive	0.021	Active	1850	3650	–	–	inactive	inactive	> 260	5.4	4.8
CC(C)c1c(Sc2ccccc2)n(CC2CC=CC2)c(=O)[nH]c1=O	25.9	0.244	1	15.5	1.19	inactive	0.028	Active	1300	22	Not Active	Not Active	inactive	inactive	> 292	–	–
Cc1cc(C)cc(Oc2c(C(C)C)c(=O)[nH]c(=O)n2CC2CCCCC2)c1	34.4	0.143	1	13.2	0.84	inactive	0.0049	Active	11400	41	–	–	inactive	inactive	11.9	8.4	1.6
Cc1cc(C)cc(Sc2c(C(C)C)c(=O)[nH]c(=O)n2CCC2CC=CC2)c1	14.2	0.254	1	12.8	0.08	inactive	0.002	Active	6530	173	–	–	inactive	inactive	149	2.5	6.2
CCc1c(C(=O)c2cc(C)cc(C)c2)n(CCC2CC=CC2)c(=O)[nH]c1=O	45	0.018	1	13.4	1.25	inactive	0.013	Active	5660	36	–	–	inactive	inactive	1.9	8.8	1.5
Cc1cc(C)cc(Sc2c(C(C)C)c(=O)[nH]c(=O)n2CC2CC2)c1	10.3	0.003	1	7.8	0.009	inactive	0.0003	Active	37600	1180	–	–	inactive	inactive	1.47	16.9	0.5
